# Results published in US9440989B2, “Antifibrinolytic compounds” (PROYECTO DE BIOMEDICINA CIMA, S.L., priority 2012, dated 2016).
# Marks after values point to notes of the source that are not given here.
# Legend:
# [1] = system: tPA-prolonged tail bleeding in wild type mice (C57/Bl6); experiment: Tail bleeding assay, hyperfibrinolytic bleeding model (tPA 0.5 mg/kg); format: in vivo; settings: n≧10
# Experimental: (§1) Bleeding time was evaluated in 2 months old wild-type C57B16 (n=10) mice by removing the tail tip. Mice (20-25 g) were anaesthetized with 2.5% isoflurane and maintained at 37° C. on heating pads. The hemostatic efficacy was evaluated in 2 models, traditional bleeding model and hyperfibrinolytic bleeding model.
# Hyperfibrinolytic bleeding model, consisted in injection of 0.5 mg/kg tPA into the ocular plexus to prolong bleeding time due to excessive fibrinolysis. […] The catheter was connected to a syringe pump (AL-1000, WPI) for the infusion of 200 μL (10% bolus, 90% perfusion during 40 minutes) of tested agents. Then, tPA (0.5 mg/kg) was injected into the ocular plexus and five minutes after tPA administration, saline or the different compounds was infused through the femoral catheter to ensure systemic distribution of all the agents. Reference compounds, TXA and Aprotinin, were administered at 300 and 10 mg/Kg respectively; however, all compounds of the invention were administered at 1 mg/Kg. Five minutes later, 5 mm of tail tip were removed using a scalpel blade and the tail tip bathed in 1 mL of sterile saline at 37° C.
# The time of bleeding was defined as the interval between initial transections and the visual cessation of bleeding, that was measured up to 30 minutes. A value of 30 min was assigned to those animals bleeding longer than the observation period. […] Bleeding time was determined in wild type mice (C57/Bl6), where n≧10 per assayed compound; therefore, BT is reported as a mean value—in the case of saline, BT is reported as mean±ESM.
# [2] = system: human blood (whole blood clot lysis, tPA); experiment: Thromboelastometry (ROTEM, modified in-tem with tPA): whole blood clot formation and lysis, human blood; settings: Homo sapiens, read-out: EC50LT (effective concentration to delay lysis time by 50%)
# Experimental: A modification of in-tem test as described below was used for the examination of antifibrinolytic effects of tested compounds and its interaction with platelets in citrated blood.
# In a pre-warmed cuvette and holder 1 μL of Tissue plasminogen activator (tPA) (150,000 U/mL, Actylise), 20 μL of start-tem reagent (CaCl2), 20 μL of in-tem reagent (activators of coagulation system), 3 μL of DMSO (control) or tested compounds (CMs) in DMSO and 300 μL of citrated blood pre-warmed were pipetted. The cup holder containing the sample mixture was placed immediately on the appropriate channel. The measurement was recorded for 60 min to allow clot formation and lysis.
# [3] = system: mice blood (whole blood clot lysis, tPA); experiment: Thromboelastometry (ROTEM, modified in-tem with tPA): whole blood clot formation and lysis, mice blood; format: cell-based; settings: Mus musculus, read-out: EC50LT (effective concentration to delay lysis time by 50%), assayed concentrations 1000-0.2 μM
# [4] = system: tail bleeding in wild-type C57B16 mice; experiment: Tail bleeding assay, traditional bleeding model; format: in vivo; settings: intraperitoneal 4 mg/mouse, 160 mg/Kg, tail tip removed 30 min after injection, n = 10
# Experimental: as §1
# Traditional bleeding model consisted in intraperitoneal injection of different compounds (4 mg/mouse, 160 mg/Kg) dissolved in 2% carboxymethyl cellulose or vehicle. Thirty minutes after injection, 5 mm of tail tip were removed using a scalpel blade and the tail tip bathed in 1 mL of sterile saline at 37° C. The time to cessation of bleeding was measured up to 30 min. The time of bleeding was defined as the interval between initial transection and the visual cessation of bleeding.
# [5] = 1 mg/Kg infused via femoral vein
Compound,EC50 [2] [nM],"BT (bleeding time, mean) [1, 5]",also measured
O=C(NO)C1(S(=O)(=O)c2ccc(NC3CCOCC3)cc2)CCC2(CCNCC2)C1 (stereo not shown) [Example 1-96],< 1000,+++** (5 minutes≦BT<10 minutes (+++)),–
"NC[C@H]1CC[C@H](C(=O)O)CC1 [TXA, tranexamic acid, reference compound]",1000 to 10000,–,"EC50 [3]: 1 to 1000 nM; BT (bleeding time, mean) ([1]; 300 mg/Kg infused via femoral vein): ++** (10 minutes≦BT<20 minutes (++))"
COc1ccc(Oc2ccc(S(=O)(=O)C3(C(=O)NO)CCC4(CCCN(C)C4)CC3)cc2)cc1 (stereo not shown) [Example 1-02],10000 to 25000,–,Bleeding time [4]: 39.2 ± 4.7 s
O=C(NO)C1(S(=O)(=O)c2ccc(NC3CCCCC3)c(Cl)c2)CCC2(CCNCC2)C1 (stereo not shown) [Example 1-80],< 1000,+++**† (5 minutes≦BT<10 minutes (+++)),–
Aprotinin [reference compound],–,–,"BT (bleeding time, mean) ([1]; 10 mg/Kg infused via femoral vein): ++** (10 minutes≦BT<20 minutes (++))"
O=C(NO)C1(S(=O)(=O)c2ccccc2NC2CCCCC2)CCC2(CCNCC2)C1 (stereo not shown) [Example 1-79],< 1000,++** (10 minutes≦BT<20 minutes (++)),–
O=C(NO)C1(S(=O)(=O)c2cccc(NC3CCCCC3)c2)CCC2(CCNCC2)C1 (stereo not shown) [Example 1-78],> 25000,–,–
"O=C(Nc1ccc(S(=O)(=O)C2(C(=O)NO)CCC3(CCNCC3)C2)cc1)C1CCCCC1 (stereo not shown) [Example 1-81, N-hydroxy-3-(4-(cyclohexanecarbonylamino)Phenylsulfonyl)-8-azaspiro[4.5]decane-3-carboxamide]",< 1000,–,–
O=C(NO)C1(S(=O)(=O)c2ccc(NCC3CCCCC3)cc2)CCC2(CCNCC2)C1 (stereo not shown) [Example 1-82],< 1000,+++** (5 minutes≦BT<10 minutes (+++)),–
COC1CCC(Nc2ccc(S(=O)(=O)C3(C(=O)NO)CCC4(CCNCC4)C3)cc2)CC1 (stereo not shown) [Example 1-77],1000 to 10000,–,–
O=C(NO)C1(S(=O)(=O)c2ccc(NC3CCCCC3)cc2)CCC2(CCNCC2)C1 (stereo not shown) [Example 1-14],< 1000,++++**†† (BT<5 minutes (++++)),EC50 [3]: 1 to 1000 nM

# More lines, main results first:
EC50 [2] [nM],Compound,"BT (bleeding time, mean) [1, 5]",also measured
< 1000,COc1ccc(S(=O)(=O)C2(C(=O)NO)CCC3(CCNCC3)C2)cc1Cl (stereo not shown) [Example 1-107],+++** (5 minutes≦BT<10 minutes (+++)),–
> 25000,O=C(Oc1ccc(S(=O)(=O)C2(C(=O)NO)CCC3(CCNCC3)C2)cc1)c1ccc(OC(F)(F)F)cc1 (stereo not shown) [Example 1-102],++* (10 minutes≦BT<20 minutes (++)),–
< 1000,O=C(NO)C1(S(=O)(=O)c2ccc(OCc3cn[nH]c3)cc2)CCC2(CCNCC2)C1 (stereo not shown) [Example 1-112],+++** (5 minutes≦BT<10 minutes (+++)),–
< 1000,COc1ccc(Oc2ccc(S(=O)(=O)C3(C(=O)NO)CCC4(CCCNC4)CC3)cc2)cc1 (stereo not shown) [Example 1-01],–,Bleeding time [4]: 31.0 ± 3.6 s
< 1000,CNC(=O)c1ccc(Oc2ccc(S(=O)(=O)C3(C(=O)NO)CCC4(CCNCC4)C3)cc2)cc1 (stereo not shown) [Example 1-08],++++**†† (BT<5 minutes (++++)),EC50 [3]: 1 to 1000 nM
> 25000,O=C(Oc1cccc(S(=O)(=O)C2(C(=O)NO)CCC3(CCNCC3)C2)c1)c1ccc(OC(F)(F)F)cc1 (stereo not shown) [Example 1-120],–,–
> 25000,CNC(=O)C1CCC(Nc2ccc(S(=O)(=O)C3(C(=O)NO)CCC4(CCNCC4)C3)cc2)CC1 (stereo not shown) [Example 1-83],–,–
> 25000,COC(=O)c1ccc(Oc2ccc(S(=O)(=O)C3(C(=O)NO)CCC4(CCNCC4)C3)cc2)cc1 (stereo not shown) [Example 1-06],–,–
< 1000,O=C(O)c1ccc(Oc2ccc(S(=O)(=O)C3(C(=O)NO)CCC4(CCNCC4)C3)cc2)cc1 (stereo not shown) [Example 1-07],++* (10 minutes≦BT<20 minutes (++)),EC50 [3]: < 1 nM
< 1000,O=C(NO)C1(S(=O)(=O)c2ccc(Oc3ccc(OC(F)(F)F)cc3)cc2)CCC2(CCNCC2)C1 (stereo not shown) [Example 1-73],++++**†† (BT<5 minutes (++++)),EC50 [3]: 1000 to 10000 nM
> 25000,"COc1ccc(-c2ccc(S(=O)(=O)C3(C(=O)NO)CCC4(CCNCC4)C3)cc2)cc1 (stereo not shown) [Example 1-41, N-hydroxy-3-(4-(4-methoxyphenyl)Phenylsulfonyl)-8-azaspiro[4.5]decane-3-carboxamide]",–,–
< 1000,CNC(=O)c1ccc(CNc2ccc(S(=O)(=O)C3(C(=O)NO)CCC4(CCNCC4)C3)cc2)cc1 (stereo not shown) [Example 1-104],–,–
> 25000,CNC(=O)c1ccc(Oc2ccc(S(=O)(=O)C3(C(=O)NO)CCC4(CCNCC4)C3)cc2)cc1F (stereo not shown) [Example 1-89],–,–
